{"source": "ChEMBL document CHEMBL5726478", "about": "“Histone demethylase inhibitors” (2019)", "molecular_target": "T1, Lysine-specific demethylase 4C (Homo sapiens, UniProt Q9H3R0)", "T1 sequence (Q9H3R0 whole entry)": "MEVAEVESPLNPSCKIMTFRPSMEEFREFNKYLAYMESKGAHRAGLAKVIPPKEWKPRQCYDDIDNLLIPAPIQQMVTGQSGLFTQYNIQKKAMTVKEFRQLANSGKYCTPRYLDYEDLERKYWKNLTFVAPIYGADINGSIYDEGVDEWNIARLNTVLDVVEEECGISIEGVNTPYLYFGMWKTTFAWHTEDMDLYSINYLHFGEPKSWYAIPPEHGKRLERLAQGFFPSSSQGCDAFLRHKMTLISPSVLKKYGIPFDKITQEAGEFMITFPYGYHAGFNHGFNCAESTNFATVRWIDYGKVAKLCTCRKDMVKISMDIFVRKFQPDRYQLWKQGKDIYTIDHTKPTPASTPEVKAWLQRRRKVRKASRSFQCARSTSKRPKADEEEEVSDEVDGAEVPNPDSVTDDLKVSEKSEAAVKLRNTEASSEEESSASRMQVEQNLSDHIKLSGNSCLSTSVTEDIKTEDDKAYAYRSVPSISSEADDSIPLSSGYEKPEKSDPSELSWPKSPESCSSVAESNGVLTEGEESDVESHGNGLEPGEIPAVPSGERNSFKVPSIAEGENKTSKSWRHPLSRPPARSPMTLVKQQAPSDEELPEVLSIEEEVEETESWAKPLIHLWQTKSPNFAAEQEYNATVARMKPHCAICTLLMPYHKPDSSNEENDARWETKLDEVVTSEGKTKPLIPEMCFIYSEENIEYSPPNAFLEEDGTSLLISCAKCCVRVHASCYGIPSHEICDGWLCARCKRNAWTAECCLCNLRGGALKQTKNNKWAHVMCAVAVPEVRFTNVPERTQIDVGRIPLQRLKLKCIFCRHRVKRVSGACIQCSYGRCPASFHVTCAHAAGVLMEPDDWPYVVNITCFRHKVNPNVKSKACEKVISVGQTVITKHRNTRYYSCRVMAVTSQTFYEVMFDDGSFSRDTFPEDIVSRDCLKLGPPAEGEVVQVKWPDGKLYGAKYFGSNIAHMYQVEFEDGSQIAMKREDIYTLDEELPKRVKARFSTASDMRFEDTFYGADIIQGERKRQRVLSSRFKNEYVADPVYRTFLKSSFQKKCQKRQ", "experiment": "JMJD2C Assay: The ability of test compounds to inhibit the activity of JMJD2C was determined in 384-well plate-format under the following reaction conditions: 0.3 nM JMJD2C, 300 nM H3K9me3-biotin labeled peptide (Anaspec cat #64360), 2 μM alpha-ketoglutaric acid in assay buffer of 50 mM HEPES, pH 7.3, 0.005% Brij35, 0.5 mM TCEP, 0.2 mg/ml BSA, 50 μM sodium L-ascorbate, and 2 μM ammonium iron(II) sulfate. Reaction product was determined quantitatively by TR-FRET after the addition of detection reagent Phycolink Streptavidin-allophycocyanin (Prozyme) and Europium-anti-di-methylated histone H3 lysine 9 (H3K9me2) antibody (PerkinElmer) in the presence of 5 mM EDTA in LANCE detection buffer (PerkinElmer) at a final concentration of 50 nM and 1 nM, respectively.The assay reaction was initiated by the following: 2 μl of the mixture of 900 nM H3K9me3-biotin labeled peptide and 6 μM alpha-ketoglutaric acid with 2 μl of 11-point serial diluted inhibitor in 3% DMSO were added to each well of the plate, followed by the addition of 2 μl of 0.9 nM JMJD2C to initiate the reaction. The reaction mixture was incubated at room temperature for 30 min, and terminated by the addition of 6 μl of 5 mM EDTA in LANCE detection buffer containing 100 nM Phycolink Streptavidin-allophycocyanin and 2 nM Europium-anti-H3K9me2 antibody. […]", "data": [{"smiles": "CC(C)N1CCN(c2cccc(N(C)c3ccc(Oc4nc(O)c5ccncc5n4)cc3)c2)CC1", "values": [{"measurement": "IC50", "value": "< 100", "unit": "nM"}]}]}
